Consider 24 compounds from US20160158200A1, “Combinations of Hepatitis C Virus Inhibitors” (priority 2013, published 2016).

Molecules are shown by their SMILES. Bounds are passed on as bounds.

The test system of assay [1] is HCV genotype 1a L31V variant with leucine 31 changed to valine in the NS5A protein. Nature of the assay: microbe, parasite or virus in culture. Particulars: genotype 1a L31V replicon; test compound titrated with compound N47 fixed at 200 nM versus singly. The assay is classed as cell-based.
The test system of assay [2] is HCV genotype 1a Y93H variant with tyrosine 93 changed to histidine in the NS5A protein. Put plainly: microbe, parasite or virus in culture. It is filed as cell-based. Particulars: genotype 1a Y93H replicon; test compound titrated with compound N47 fixed at 200 nM versus singly. Here is the method: Combinations can be examined for synergistic activity using a variety of putative NS5A-targeting compounds and a variety of test compounds. […] The test compound can be chosen from compounds exemplified below, which were prepared by methods known in the art, or from others disclosed in the literature.
Similarly, BMS-790052 can be tested singly and in combination with a fixed amount of compound N47 in the HCV replicon cell based assay consisting of the genotype 1a Y93H variant with tyrosine 93 changed to histidine in the NS5A protein.
(A replicon is a self-replicating genome or part of one, used to study replication in cells.)

Regarding `O=C(Nc1ccc(/C=C/c2ccc(NC(=O)[C@@H]3CCCN3C(=O)Cc3ccccc3)cc2)cc1)[C@@H]1CCCN1C(=O)Cc1ccccc1`, in assay [1], the “Fold-Synergistic G-1a (L31V)” value is on record as under 10 fold. For the same compound, the “Fold-Synergistic G-1a (Y93H)” value in assay [2] was under 10 fold.
On to `COC(=O)N[C@H](C(=O)N1C[C@H](C)C[C@H]1c1ncc(-c2ccc(-c3ccc4cc(-c5cnc([C@@H]6C[C@@H](C)CN6C(=O)[C@@H](NC(=O)OC)C(C)C)[nH]5)ccc4c3)cc2)[nH]1)C(C)C`, for which the “Fold-Synergistic G-1a (L31V)” value in assay [1] is listed as under 10 fold. In addition, in assay [2], the “Fold-Synergistic G-1a (Y93H)” value is given as over 10 fold.
In the case of `C[C@H](NC(=O)[C@@H](c1ccccc1)N(C)C)c1ncc(-c2ccc(-c3ccc(-c4cnc([C@@H]5CCCN5C(=O)[C@@H](c5ccccc5)N(C)C)[nH]4)cn3)cc2)[nH]1`, in assay [1], the “Fold-Synergistic G-1a (L31V)” value is reported as under 10 fold. For the same compound, in assay [2], the “Fold-Synergistic G-1a (Y93H)” value is under 10 fold.
Turning to `COC(=O)N[C@@H](C(=O)N1CCC[C@H]1c1ncc(-c2ccc(-c3ccc(-c4cnc([C@@H]5CCCN5C(=O)[C@H](NC(=O)OC)c5ccccc5)[nH]4)cc3)cc2)[nH]1)c1ccccc1`, the “Fold-Synergistic G-1a (L31V)” value in assay [1] is over 10 fold. Moreover, the “Fold-Synergistic G-1a (Y93H)” value in assay [2] is reported as under 10 fold.
Take `CN(C)[C@@H](C(=O)N1CCCC[C@H]1c1ncc(-c2ccc(-c3ccc(-c4cnc([C@@H]5CCCCN5C(=O)[C@@H](c5ccccc5)N(C)C)[nH]4)cc3)cc2)[nH]1)c1ccccc1`: in assay [1], the “Fold-Synergistic G-1a (L31V)” value is reported as under 10 fold. For the same compound, the “Fold-Synergistic G-1a (Y93H)” value in assay [2] was over 10 fold.
`COC(=O)N[C@@H](C(=O)N1CCC[C@H]1c1ncc(-c2ccc(-c3ncc(-c4cnc([C@@H]5CCCN5C(=O)[C@H](NC(=O)OC)c5ccccc5)[nH]4)cn3)cc2)[nH]1)c1ccccc1`: the “Fold-Synergistic G-1a (L31V)” value in assay [1] was under 10 fold. In addition, the “Fold-Synergistic G-1a (Y93H)” value in assay [2] is under 10 fold.
With `COC(=O)N[C@H](C(=O)N1[C@@H]2C[C@@H]2C[C@H]1c1ncc(-c2cccc(-c3ccc4cc(-c5cnc([C@H]6C[C@@H]7C[C@@H]7N6C(=O)[C@@H](NC(=O)OC)C(C)C)[nH]5)ccc4c3)c2)[nH]1)C(C)C`, in assay [1], the “Fold-Synergistic G-1a (L31V)” value is listed as under 10 fold. Moreover, the “Fold-Synergistic G-1a (Y93H)” value in assay [2] is listed as over 10 fold.
The like results for `C=C1C[C@@H](c2nc(-c3ccc(-c4ccc5cc(-c6c[nH]c([C@@H]7CC(=C)CN7C(=O)[C@@H](NC(=O)OC)C(C)C)n6)ccc5c4)cc3)c[nH]2)N(C(=O)[C@@H](NC(=O)OC)C(C)C)C1` were, in that order, under 10 fold and over 100 fold.
On the same counts, the results for `COC(=O)N[C@@H](C(=O)N1CCC[C@H]1c1nc(-c2ccc(Oc3cccc(-c4cnc([C@@H]5CCCN5C(=O)[C@H](NC(=O)OC)c5ccccc5)[nH]4)c3)cc2)c[nH]1)c1ccccc1` are under 10 fold and under 10 fold.
On the same counts, the results for `O=C(Nc1ccc(/C=C/c2ccc(NC(=O)[C@@H]3CCCCN3C(=O)OCc3ccccc3)cc2)cc1)[C@@H]1CCCCN1C(=O)OCc1ccccc1` are under 10 fold and under 10 fold.
Consider `COC(=O)N[C@H](C(=O)N1[C@@H]2C[C@@H]2C[C@H]1c1nc2cc(CCc3ccc4c(ccc5[nH]c([C@@H]6C[C@H]7C[C@H]7N6C(=O)[C@@H](NC(=O)OC)C6CCOCC6)nc54)c3)ccc2[nH]1)C(C)C`, for which the “Fold-Synergistic G-1a (L31V)” value in assay [1] is listed as over 10 fold. The “Fold-Synergistic G-1a (Y93H)” value in assay [2] is over 100 fold.
Consider `C[C@](O)(C(=O)N1CCC[C@H]1c1nc2ccc(-c3ccc(-c4ccc5nc([C@@H]6CCCN6C(=O)[C@](C)(O)c6ccccc6)[nH]c5c4)o3)cc2[nH]1)c1ccccc1`, for which the “Fold-Synergistic G-1a (L31V)” value in assay [1] was under 10 fold. For the same compound, the “Fold-Synergistic G-1a (Y93H)” value in assay [2] is given as under 10 fold.
With `COC(=O)N[C@H](C(=O)N1C[C@@H]2C[C@@H]2[C@H]1c1ncc(-c2ccc(-c3ccc(-c4cnc([C@@H]5[C@H]6C[C@H]6CN5C(=O)[C@@H](NC(=O)OC)C(C)C)[nH]4)cc3)cc2)[nH]1)C(C)C`, the “Fold-Synergistic G-1a (L31V)” value in assay [1] is over 100 fold. Moreover, in assay [2], the “Fold-Synergistic G-1a (Y93H)” value is reported as over 100 fold.
Turning to `CC(C)[C@H](NC(=O)OCc1ccccc1)C(=O)Nc1ccc(-c2cnc(-c3ccc(NC(=O)[C@@H](NC(=O)OCc4ccccc4)C(C)C)cc3)o2)cc1`, the “Fold-Synergistic G-1a (L31V)” value in assay [1] is listed as under 10 fold. Also, in assay [2], the “Fold-Synergistic G-1a (Y93H)” value was under 10 fold.
Regarding `COC(=O)N[C@H](C(=O)N1[C@H](C)CC[C@H]1c1ncc(-c2ccc(-c3ccc(-c4cnc([C@@H]5CC[C@@H](C)N5C(=O)[C@@H](NC(=O)OC)C(C)C)[nH]4)cc3)cc2)[nH]1)C(C)C`, the “Fold-Synergistic G-1a (L31V)” value in assay [1] is listed as over 100 fold. Besides, the “Fold-Synergistic G-1a (Y93H)” value in assay [2] was over 100 fold.
For the compound `COC(=O)N[C@H](C(=O)N1CCOC[C@H]1c1ncc(-c2ccc(-c3ccc(-c4cnc([C@@H]5COCCN5C(=O)[C@@H](NC(=O)OC)C(C)C)[nH]4)cc3)cc2)[nH]1)C(C)C`, the “Fold-Synergistic G-1a (L31V)” value in assay [1] is reported as over 100 fold. For the same compound, the “Fold-Synergistic G-1a (Y93H)” value in assay [2] is given as over 100 fold.
Consider `CN(C)[C@@H](C(=O)N1CCC[C@H]1c1nc(-c2ccc(COCc3ccc(-c4c[nH]c([C@@H]5CCCN5C(=O)[C@@H](c5ccccc5)N(C)C)n4)cc3)cc2)c[nH]1)c1ccccc1`, for which, in assay [1], the “Fold-Synergistic G-1a (L31V)” value is listed as under 10 fold. Besides, the “Fold-Synergistic G-1a (Y93H)” value in assay [2] was under 10 fold.
In the case of `COC(=O)N[C@H](C(=O)N1CCC[C@H]1c1nc2ccc(C#CC#Cc3ccc4nc([C@@H]5CCCN5C(=O)[C@@H](NC(=O)OC)C(C)C)[nH]c4c3)cc2[nH]1)C(C)C`, the “Fold-Synergistic G-1a (L31V)” value in assay [1] is recorded as over 100 fold. In addition, the “Fold-Synergistic G-1a (Y93H)” value in assay [2] is reported as over 10 fold.
On the same counts, the results for `COC(=O)N[C@H](C(=O)N1CC[C@H](C)[C@H]1c1ncc(-c2ccc(-c3ccc(-c4cnc([C@@H]5[C@@H](C)CCN5C(=O)[C@@H](NC(=O)OC)C(C)C)[nH]4)cc3)cc2)[nH]1)C(C)C` are over 100 fold and over 100 fold.
`COC(=O)N[C@H](C(=O)N1CC(F)(F)C[C@H]1c1nc(-c2ccc(-c3ccc(-c4c[nH]c([C@@H]5CC(F)(F)CN5C(=O)[C@@H](NC(=O)OC)C(C)C)n4)cc3)cc2)c[nH]1)C(C)C`: in assay [1], the “Fold-Synergistic G-1a (L31V)” value is over 100 fold. Further, the “Fold-Synergistic G-1a (Y93H)” value in assay [2] is reported as over 100 fold.
Take `COC(=O)N[C@H](C(=O)N1CCC[C@H]1c1ncc(-c2ccc3oc(-c4ccc5nc([C@@H]6CCCN6C(=O)[C@@H](NC(=O)OC)C(C)C)[nH]c5c4)nc3c2)[nH]1)C(C)C`: the “Fold-Synergistic G-1a (L31V)” value in assay [1] is listed as over 100 fold. The “Fold-Synergistic G-1a (Y93H)” value in assay [2] was over 100 fold.
On to `COC(=O)N[C@H](C(=O)N1CCC[C@H]1c1nc(-c2ccc(-c3ccc4c(c3)CCCCc3[nH]c([C@@H]5CCCN5C(=O)[C@@H](NC(=O)OC)C(C)C)nc3-4)cc2)c[nH]1)C(C)C`, for which the “Fold-Synergistic G-1a (L31V)” value in assay [1] was over 100 fold. The “Fold-Synergistic G-1a (Y93H)” value in assay [2] is on record as over 100 fold.
Take `CN(C)[C@@H](C(=O)N1CCC[C@H]1c1ncc(-c2ccc(-c3ccc(-c4ccc(-c5cnc([C@@H]6CCCN6C(=O)[C@@H](c6ccccc6)N(C)C)[nH]5)cc4)cc3)cc2)[nH]1)c1ccccc1`: the “Fold-Synergistic G-1a (L31V)” value in assay [1] was under 10 fold. In assay [2], the “Fold-Synergistic G-1a (Y93H)” value was under 10 fold.
Take `O=C(Nc1ccc(C#Cc2ccc(NC(=O)[C@@H]3CCCN3C(=O)CC3CC3)cc2)cc1)[C@@H]1CCCN1C(=O)CC1CC1`: the “Fold-Synergistic G-1a (L31V)” value in assay [1] is listed as under 10 fold. Further, the “Fold-Synergistic G-1a (Y93H)” value in assay [2] was under 10 fold.
